Data: patent publication EP4609848A1 (I-D Actives, S.L., priority 2024, dated 2025)
≈ marks a conversion by molar mass, not a printed value.

Assay: Phase solubility study with cyclodextrins (β-CDs, HP-β-CDs) in galega water, spectrophotometric titration
Format: physicochemical
Description: The inventors performed solubility studies in an aqueous media in the absence and presence of solvents and in the presence of increasing concentrations of different types of CDs (β-CDs and HP-β-CDs).
According to the traditional interpretation, this study was carried out using the solubility method.
On the other hand, further sea buckthorn oil solubilization tests were performed with galega water solutions containing 80 mM HP-β-cyclodextrin and another solution with 10 mM β-cyclodextrin.

Question: What does the source list for Oc1ccc(C=Cc2cc(O)cc(O)c2)cc1 [Resveratrol, resveratrol]?
Answer: solubility thermodynamic at 60 min (25 °C, water, thermodynamic from solid): 40 µg/mL (≈ 175 µM); solubility of resveratrol (in absence of CDs, galega water): 25 µg/mL
